The results in this text go back to US20240400555A1 (Initial Therapeutics, Inc., priority 2023, published 2024).

Each structure is given as a SMILES string.

The subject of this test is MV-4-11 cells. The test can be described thus: Cell Viability Assay in MV-4-11 Cells. The settings on record: Homo sapiens, MV4-11, 72 h, MV-4-11 cells, 72 h, Cell-Titer Glo; read-out: IC50. In kind it is cell-based. A digest of the protocol: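 Luminescent ATP read-out (CellTiter-Glo) after 72 h compound treatment of MV-4-11 leukaemia cells (7,000 per well, IMDM plus 10% FBS). Values expressed relative to DMSO control and derived by four-parameter non-linear regression.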
What is called IC50 is the concentration that inhibits the measured activity by half. In the case of `Cc1nnc(-c2ccc(C(=O)N(c3nccc4sc(C#CCCC(N)=O)cc34)[C@@H]3CCCNC3)c(F)c2)s1` [Example 817, N-[2-(5-amino-5-oxo-pent-1-ynyl)thieno[3,2-c]pyridin-4-yl]-2-fluoro-4-(5-methyl-1,3,4-thiadiazol-2-yl)-N-[(3R)-3-piperidyl]benzamide], the IC50 turned out to be 3600 nM.
Regarding `Cc1nnc(-c2ccc(C(=O)N(c3nccc4sc(C#CCCO)cc34)[C@@H]3CCCNC3)c(F)c2)s1` [Example 818, (R)-2-fluoro-N-(2-(4-hydroxybut-1-yn-1-yl)thieno[3,2-c]pyridin-4-yl)-4-(5-methyl-1,3,4-thiadiazol-2-yl)-N-(piperidin-3-yl)benzamide], the IC50 turned out to be 1300 nM.
In the case of `Cc1c(-c2ccc(C(=O)N(c3nccc4sc(-c5ccc(C(N)=O)cc5)cc34)[C@@H]3CCCNC3)c(F)c2)nnn1C` [Example 819, N-[2-(4-carbamoylphenyl)thieno[3,2-c]yridine-4-yl]-4-(1,5-dimethyltriazol-4-yl)-2-fluoro-N-[(3R)-3-piperidyl]benzamide], the IC50 is 1000 nM.
The figure for `Cc1sc2ccnc(N(C(=O)c3ccc(-n4nnc5cccnc54)cc3F)[C@@H]3CCCNC3)c2c1C` [Example 820, (R)-4-(3H-[1,2,3]triazolo[4,5-b]pyridin-3-yl)-N-(2,3-dimethylthieno[3,2-c]pyridin-4-yl)-2-fluoro-N-(piperidin-3-yl)benzamide] is 220 nM.
As to `CCn1cc(-c2ccc(C(=O)N(c3nccc4cccc(C)c34)[C@@H]3CCCNC3)c(F)c2)nn1` [Example 821, (R)-4-(1-ethyl-1H-1,2,3-triazol-4-yl)-2-fluoro-N-(8-methylisoquinolin-1-yl)-N-(piperidin-3-yl)benzamide], the IC50 came to 67 nM.
Regarding `Cc1cccc2ccnc(N(C(=O)c3ccc(-c4cn(C)nn4)cc3Cl)[C@@H]3CCCNC3)c12` [Example 822, (R)-2-chloro-4-(1-methyl-1H-1,2,3-triazol-4-yl)-N-(8-methylisoquinolin-1-yl)-N-(piperidin-3-yl)benzamide], the IC50 was 390 nM.
Turning to `Cc1cccc2ccnc(N(C(=O)c3ccc(Nc4ncc5ccsc5n4)cc3F)[C@@H]3CCCNC3)c12` [Example 823, (R)-2-fluoro-N-(8-methylisoquinolin-1-yl)-N-(piperidin-3-yl)-4-(thieno[2,3-d]pyrimidin-2-ylamino)benzamide], the IC50 was 130 nM.
For `Cc1cccc2ccnc(N(C(=O)c3ccc(Nc4ncc5ccccc5n4)cc3F)[C@@H]3CCCNC3)c12` [Example 824, (R)-2-fluoro-N-(8-methylisoquinolin-1-yl)-N-(piperidin-3-yl)-4-(quinazolin-2-ylamino)benzamide], the IC50 came out at 130 nM.
The figure for `NC(=O)c1ccc(-c2cc3c(N(C(=O)c4ccc(-c5cnn6c5CCCC6)cc4F)[C@@H]4CCCNC4)nccc3s2)cc1` [Example 825, N-[2-(4-carbamoylphenyl)thieno[3,2-c]pyridin-4-yl]-2-fluoro-N-[(3R)-3-piperidyl]-4-(4,5,6,7-tetrahydropyrazolo[1,5-a]pyridin-3-yl)benzamide] is 1000 nM; for `NC(=O)c1ccc(-c2cc3c(N(C(=O)c4ccc(-n5cnc6ccccc65)cc4F)[C@@H]4CCCNC4)nccc3s2)cc1` [Example 826, 4-(benzimidazol-1-yl)-N-[2-(4-carbamoylphenyl)thieno[3,2-c]pyridin-4-yl]-2-fluoro-N-[(3R)-3-piperidyl]benzamide] it is 4400 nM.
For `Cc1nnc(-c2ccc(C(=O)N(c3nccc4sc(-c5ccc(C(N)=O)cc5)cc34)[C@@H]3CCCNC3)c(F)c2)s1` [Example 827, N-[2-(4-carbamoylphenyl)thieno[3,2-c]pyridin-4-yl]-2-fluoro-4-(5-methyl-1,3,4-thiadiazol-2-yl)-N-[(3R)-3-piperidyl]benzamide], the concentration for half-maximal inhibition (IC50) was found to be 910 nM.
In the case of `Cn1cc(-c2ccc(C(=O)N(c3nccc4cc(Cc5cccnc5)ccc34)[C@@H]3CCCNC3)c(F)c2)nn1` [Example 828, (R)-2-fluoro-4-(1-methyl-1H-1,2,3-triazol-4-yl)-N-(piperidin-3-yl)-N-(6-(pyridin-3-ylmethyl)isoquinolin-1-yl)benzamide] it was 1000 nM.
In the case of `Cc1cc(F)cc2ccnc(N(C(=O)c3ccc(-c4nnn(C)c4C)cc3F)[C@@H]3CCCNC3)c12` [Example 829, (R)-4-(1,5-dimethyl-1H-1,2,3-triazol-4-yl)-2-fluoro-N-(6-fluoro-8-methylisoquinolin-1-yl)-N-(piperidin-3-yl)benzamide] it was 130 nM; in that of `Cc1cccc2ccnc(N(C(=O)c3ccc(-c4nnn(C)c4C)cc3F)[C@@H]3CCCNC3)c12` [Example 830, (R)-4-(1,5-dimethyl-1H-1,2,3-triazol-4-yl)-2-fluoro-N-(8-methylisoquinolin-1-yl)-N-(piperidin-3-yl)benzamide], 210 nM; in that of `Cc1sc2ccnc(N(C(=O)c3ccc(-c4cn(C)nn4)cc3F)[C@@H]3CCCNC3)c2c1C` [Example 831, (R)—N-(2,3-dimethylthieno[3,2-c]pyridin-4-yl)-2-fluoro-4-(1-methyl-1H-1,2,3-triazol-4-yl)-N-(piperidin-3-yl)benzamide], 440 nM.
The figure for `CCc1nnc(-c2ccc(C(=O)N(c3nccc4cc(F)cc(C)c34)[C@@H]3CCCNC3)c(F)c2)s1` [Example 832, (R)-4-(5-ethyl-1,3,4-thiadiazol-2-yl)-2-fluoro-N-(6-fluoro-8-methylisoquinolin-1-yl)-N-(piperidin-3-yl)benzamide] is 120 nM.
As for `Cc1nnc(-c2ccc(C(=O)N(c3nccc4cc(F)cc(C)c34)[C@@H]3CCCNC3)c(F)c2)s1` [Example 833, (R)-2-fluoro-N-(6-fluoro-8-methylisoquinolin-1-yl)-4-(5-methyl-1,3,4-thiadiazol-2-yl)-N-(piperidin-3-yl)benzamide], the IC50 was found to be 120 nM.
In the case of `Cn1cc(-c2ccc(C(=O)N(c3nccc4cc(-c5ccc(CN)cc5)ccc34)[C@@H]3CCCNC3)c(F)c2)nn1` [Example 834, (R)—N-(6-(4-(aminomethyl)phenyl)isoquinolin-1-yl)-2-fluoro-4-(1-methyl-1H-1,2,3-triazol-4-yl)-N-(piperidin-3-yl)benzamide] it was 140 nM.
For `Cc1cccc2ccnc(N(C(=O)c3ccc(-c4nnc(C5CC5)s4)cc3F)[C@@H]3CCCNC3)c12` [Example 836, (R)-4-(5-cyclopropyl-1,3,4-thiadiazol-2-yl)-2-fluoro-N-(8-methylisoquinolin-1-yl)-N-(piperidin-3-yl)benzamide], the IC50 was 89 nM.
In the case of `CCc1nnc(-c2ccc(C(=O)N(c3nccc4cccc(C)c34)[C@@H]3CCCNC3)c(F)c2)s1` [Example 837, (R)-4-(5-ethyl-1,3,4-thiadiazol-2-yl)-2-fluoro-N-(8-methylisoquinolin-1-yl)-N-(piperidin-3-yl)benzamide] it was 34 nM; in that of `O=C(c1ccc(-c2cnn3c2CCCC3)cc1F)N(c1nccc2sc(C#CCCCO)cc12)[C@@H]1CCCNC1` [Example 839, 2-fluoro-N-[2-(5-hydroxypent-1-ynyl)thieno[3,2-c]pyridin-4-yl]-N-[(3R)-3-piperidyl]-4-(4,5,6,7-tetrahydropyrazolo[1,5-a]pyridin-3-yl)benzamide], 1500 nM.
